Target: Bcl-xL (Homo sapiens, UniProt Q07817)
Experiment: Bak/Bcl-XL competitive fluorescence polarization binding assay with fluorescein labeled Bid peptide
Details: displacement of fluorescein labeled Bid peptide from Bcl-xL; mP values only in drawings
Excerpt: The affinity of each molecule within the library of potential Bak mimetics can be assayed with respect to binding to Bcl-xL receptor. The binding affinity can be determined, for example, by a competitive binding assay based on fluorescence polarization. See Wang, et al., Proc. Natl. Acad. Sci., 2000, 97:7124-7129.
Competitive fluorescence polarization-based assays require a dye-labeled peptide to determine if the small molecule has affinity for the target protein. These assays can be carried out with a fluorescein labeled Bid peptide. […] When a solution of fluorescein labeled Bid peptide is irradiated with polarized light, the peptide rotates quickly and the emitted light is depolarized. Upon complexation with the target Bcl-xL protein, the larger complex rotates slowly and the emitted light remains polarized.
When the fluorescein-labeled Bid/Bcl-xL complex is exposed to small molecules with binding affinity for Bcl-xL, the Bid peptide is displaced and the amount of depolarized light emitted increases. This polarization amount (mP) provides an estimate of the affinity for the small molecules for Bcl-xL
See Kutzki, et al., J. Am. Chem. Soc., 2002, 124:11838-11839. This compound acts as a positive control.
These compounds represent the strongest binders for Bcl-xL of the Bak mimetic library, with structure and mP values shown below.

Chain of Bcl-xL (Q07817 whole entry, species assumed): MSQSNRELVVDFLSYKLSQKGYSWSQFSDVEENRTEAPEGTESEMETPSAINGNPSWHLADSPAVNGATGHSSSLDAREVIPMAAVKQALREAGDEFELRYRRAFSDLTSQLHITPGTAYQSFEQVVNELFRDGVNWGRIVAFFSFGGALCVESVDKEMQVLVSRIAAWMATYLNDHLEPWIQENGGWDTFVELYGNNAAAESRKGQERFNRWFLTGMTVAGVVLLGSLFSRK

activity (mP value) in binding to Bcl-xL | Compound
particularly active | CC(C)Cc1cc(-c2nc(C(C)C)co2)nnc1-c1nc(C(C)C)co1 [Compound 4.53, 2,2′-(4-isobutylpyridazine-3,6-diyl)bis(4-isopropyloxazole)]
particularly active | CC(C)Cc1cc(C(=O)N2CCC[C@@H](OCc3ccccc3)C2)nnc1-c1nc(C(C)C)co1 [Compound 4.73, (R)-(3-(Benzyloxy)piperidin-1-yl)(5-isobutyl-6-(4-isopropyloxazol-2-yl)pyridazin-3-yl)methanone]
